Assay results as given in ChEMBL document CHEMBL1201862, “PubChem BioAssay data set” (2004).
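Method: 48-hour compound exposure of cells in 96-well plates, five concentrations, linear interpolation of endpoints. The concentration for 50% growth inhibition is given as GI50.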 The source made the active and inactive calls. Rule as the data show it: active = GI50 up to about 1.1 µM and inactive = higher.

What was measured:
Assay in all cases: NCI-60 cell line screen, 48 h
BT-549 = tested on: BT-549
CAKI-1 = tested on: CAKI-1
UACC-62 = tested on: UACC-62
MCF7 = tested on: MCF7
OVCAR-4 = tested on: OVCAR-4
PC-3 = tested on: PC-3
MDA-MB-231 = tested on: MDA-MB-231
SNB-19 = tested on: SNB-19
CCRF-CEM = tested on: CCRF-CEM
HT-29 = tested on: HT-29
HCC 2998 = tested on: HCC 2998
MDA-MB-435 = tested on: MDA-MB-435
HCT-116 = tested on: HCT-116
HCT-15 = tested on: HCT-15
LOX IMVI = tested on: LOX IMVI
NCI-H460 = tested on: NCI-H460
SNB-75 = tested on: SNB-75
Hs-578T = tested on: Hs-578T
DU-145 = tested on: DU-145
SR = tested on: SR
COLO 205 = tested on: COLO 205
SK-MEL-28 = tested on: SK-MEL-28
NCI-H522 = tested on: NCI-H522
NCI-H226 = tested on: NCI-H226
RPMI-8226 = tested on: RPMI-8226
SK-OV-3 = tested on: SK-OV-3
M14 = tested on: M14
SK-MEL-2 = tested on: SK-MEL-2
KM12 = tested on: KM12
OVCAR-8 = tested on: OVCAR-8
HL-60 = tested on: HL-60
NCI/ADR-RES = tested on: NCI/ADR-RES
ACHN = tested on: ACHN
A498 = tested on: A498
NCI-H23 = tested on: NCI-H23
T47D = tested on: T47D
786-0 = tested on: 786-0
EKVX = tested on: EKVX
MDA-N = tested on: MDA-N
OVCAR-3 = tested on: OVCAR-3
K562 = tested on: K562
SK-MEL-5 = tested on: SK-MEL-5
SW-620 = tested on: SW-620
RXF 393 = tested on: RXF 393
HOP-62 = tested on: HOP-62
OVCAR-5 = tested on: OVCAR-5
A549 = tested on: A549
UACC-257 = tested on: UACC-257
UO-31 = tested on: UO-31
U-251 = tested on: U-251
SN12C = tested on: SN12C
TK-10 = tested on: TK-10
Malme-3M = tested on: Malme-3M
IGROV-1 = tested on: IGROV-1
SF-268 = tested on: SF-268
HOP-92 = tested on: HOP-92
SF-539 = tested on: SF-539
SF-295 = tested on: SF-295

In the case of `O=C(O)C(Cc1cccs1)C(=O)O`, the GI50 (BT-549) is reported as > 100 µM (inactive), the GI50 (CAKI-1) is reported as > 100 µM (inactive) and the GI50 (UACC-62) is reported as > 100 µM (inactive). For the same molecule, the GI50 (MCF7) was > 100 µM (inactive), the GI50 (OVCAR-4) was > 100 µM (inactive) and the GI50 (PC-3) was > 100 µM (inactive). For the same molecule, the GI50 (MDA-MB-231) was > 100 µM (inactive), the GI50 (SNB-19) was > 100 µM (inactive) and the GI50 (CCRF-CEM) was > 100 µM (inactive). The GI50 (HT-29) was > 100 µM (inactive), the GI50 (HCC 2998) was > 100 µM (inactive) and the GI50 (MDA-MB-435) was > 100 µM (inactive). For the same molecule, the GI50 (HCT-116) was > 100 µM (inactive), the GI50 (HCT-15) was > 100 µM and the GI50 (LOX IMVI) was > 100 µM (inactive). For the same molecule, the GI50 (NCI-H460) was > 100 µM (inactive), the GI50 (SNB-75) was > 100 µM (inactive) and the GI50 (Hs-578T) was > 100 µM (inactive). The GI50 (DU-145) was > 100 µM (inactive), the GI50 (SR) was > 100 µM (inactive) and the GI50 (COLO 205) was > 100 µM (inactive). The GI50 (SK-MEL-28) was > 100 µM (inactive), the GI50 (NCI-H522) was > 100 µM (inactive) and the GI50 (NCI-H226) was > 100 µM (inactive). The GI50 (RPMI-8226) was > 100 µM (inactive), the GI50 (SK-OV-3) was > 100 µM (inactive) and the GI50 (M14) was > 100 µM (inactive). For the same molecule, the GI50 (SK-MEL-2) was > 100 µM (inactive), the GI50 (KM12) was > 100 µM (inactive) and the GI50 (OVCAR-8) was > 100 µM (inactive). For the same molecule, the GI50 (HL-60) was > 100 µM (inactive), the GI50 (NCI/ADR-RES) was > 100 µM (inactive) and the GI50 (ACHN) was > 100 µM (inactive). The GI50 (A498) was > 100 µM (inactive), the GI50 (NCI-H23) was > 100 µM (inactive) and the GI50 (T47D) was > 100 µM (inactive). For the same molecule, the GI50 (786-0) was > 100 µM (inactive), the GI50 (EKVX) was > 100 µM (inactive) and the GI50 (MDA-N) was > 100 µM (inactive). For the same molecule, the GI50 (OVCAR-3) was > 100 µM (inactive), the GI50 (K562) was > 100 µM (inactive) and the GI50 (SK-MEL-5) was > 100 µM (inactive). For the same molecule, the GI50 (SW-620) was > 100 µM (inactive), the GI50 (RXF 393) was > 100 µM (inactive) and the GI50 (HOP-62) was > 100 µM (inactive). The GI50 (OVCAR-5) was > 100 µM (inactive), the GI50 (A549) was > 100 µM (inactive) and the GI50 (UACC-257) was > 100 µM (inactive). For the same molecule, the GI50 (UO-31) was > 100 µM (inactive), the GI50 (U-251) was > 100 µM (inactive) and the GI50 (SN12C) was > 100 µM (inactive). For the same molecule, the GI50 (TK-10) was > 100 µM (inactive), the GI50 (Malme-3M) was > 100 µM (inactive) and the GI50 (IGROV-1) was > 100 µM (inactive). The GI50 (SF-268) was > 100 µM (inactive) and the GI50 (HOP-92) was > 100 µM (inactive).
For `O=C(O)c1cccc(C(=O)O)c1[S+]([O-])Cc1ccccc1` (stereo not drawn), the GI50 (BT-549) was > 100 µM (inactive), the GI50 (CAKI-1) was > 100 µM (inactive) and the GI50 (UACC-62) was > 100 µM (inactive). The GI50 (MCF7) was > 100 µM (inactive), the GI50 (OVCAR-4) was > 100 µM (inactive) and the GI50 (PC-3) was > 100 µM (inactive). For the same molecule, the GI50 (MDA-MB-231) was > 100 µM (inactive), the GI50 (SNB-19) was > 100 µM (inactive) and the GI50 (HT-29) was > 100 µM (inactive). The GI50 (HCC 2998) was > 100 µM (inactive), the GI50 (MDA-MB-435) was > 100 µM (inactive) and the GI50 (HCT-116) was > 100 µM (inactive). The GI50 (HCT-15) was > 100 µM, the GI50 (LOX IMVI) was > 100 µM (inactive) and the GI50 (NCI-H460) was > 100 µM (inactive). The GI50 (SNB-75) was > 100 µM (inactive), the GI50 (Hs-578T) was > 100 µM (inactive) and the GI50 (DU-145) was > 100 µM (inactive). For the same molecule, the GI50 (SR) was > 100 µM (inactive), the GI50 (COLO 205) was > 100 µM (inactive) and the GI50 (SK-MEL-28) was > 100 µM (inactive). For the same molecule, the GI50 (NCI-H522) was > 100 µM (inactive), the GI50 (SF-539) was > 100 µM (inactive) and the GI50 (NCI-H226) was > 100 µM (inactive). For the same molecule, the GI50 (RPMI-8226) was > 100 µM (inactive), the GI50 (SK-OV-3) was > 100 µM (inactive) and the GI50 (M14) was > 100 µM (inactive). The GI50 (SK-MEL-2) was > 100 µM (inactive), the GI50 (KM12) was > 100 µM (inactive) and the GI50 (OVCAR-8) was > 100 µM (inactive). For the same molecule, the GI50 (HL-60) was > 100 µM (inactive), the GI50 (NCI/ADR-RES) was > 100 µM (inactive) and the GI50 (ACHN) was > 100 µM (inactive). For the same molecule, the GI50 (SF-295) was > 100 µM (inactive), the GI50 (A498) was > 100 µM (inactive) and the GI50 (NCI-H23) was > 100 µM (inactive). The GI50 (T47D) was > 100 µM (inactive), the GI50 (786-0) was > 100 µM (inactive) and the GI50 (EKVX) was > 100 µM (inactive). The GI50 (MDA-N) was > 100 µM (inactive), the GI50 (OVCAR-3) was > 100 µM (inactive) and the GI50 (K562) was > 100 µM (inactive). The GI50 (SK-MEL-5) was > 100 µM (inactive), the GI50 (SW-620) was > 100 µM (inactive) and the GI50 (RXF 393) was > 100 µM (inactive). The GI50 (HOP-62) was > 100 µM (inactive), the GI50 (OVCAR-5) was > 100 µM (inactive) and the GI50 (A549) was > 100 µM (inactive). For the same molecule, the GI50 (UACC-257) was > 100 µM (inactive), the GI50 (UO-31) was > 100 µM (inactive) and the GI50 (U-251) was > 100 µM (inactive). For the same molecule, the GI50 (SN12C) was > 100 µM (inactive), the GI50 (TK-10) was > 100 µM (inactive) and the GI50 (Malme-3M) was > 100 µM (inactive). For the same molecule, the GI50 (IGROV-1) was > 100 µM (inactive), the GI50 (SF-268) was > 100 µM (inactive) and the GI50 (HOP-92) was > 100 µM (inactive).
